Results: PMC9950073, “Alleviation of arthritis through prevention of neutrophil extracellular traps by an orally available inhibitor of protein arginine deiminase 4” (Scientific Reports, 2023)

Assays:
[1] = system: histone H3 citrullination in human neutrophils; experiment: Citrullination assay in human neutrophils (citrullinated H3 ELISA); assay type: cell-based; settings: Neutrophil
Description: All blood samples from healthy donors who participated in this study were obtained after informed consent in accordance with relevant guidelines and regulations given by the ACE Independent ethics committee for Jubilant Biosys Ltd and Office of Clinical Investigations at Boston Children’s Hospital. The ACE Independent ethics committee, Bangalore, approved the use of human whole blood/PBMC/Enriched Subset in Jubilant Biosys Ltd investigations, Drug Controller General of India (DCGI) Reg No. ECR/141/Indt/KA/2013. Briefly, 10 mL K2EDTA vacutainers were used to collect fresh blood from healthy donors (BD vacutainer, Catalog No: BD 367525). A total of 50 ml of blood was taken from a single, healthy human donor. Neutrophils were isolated from human blood using the EasySep Direct Human Neutrophil Isolation Kit, according to the manufacturer's instructions (Stem Cell Technology, Catalog No: 19666). […]
Citrullinated H3 Enzyme linked immunosorbent Assay (ELISA) was performed as per manufacturer’s instructions (Cayman chemicals, Catalog No: 501620). Neutrophils obtained as mentioned above were counted and cell suspension was prepared in complete RPMI media. […] IC50 values were determined by sigmoidal dose–response curve (variable slope) in Graph Pad Prism 5 software.

[2] = system: G-CSF-modified collagen-induced arthritis; experiment: G-CSF-modified collagen-induced arthritis model; assay type: in vivo, C57BL/6 mice
Description: C57BL/6 mice aged 8– 12 weeks were immunized with the emulsion of complete Freund's adjuvant (CFA, catalog number: 7023, Chondrex, Redmond, WA) and 100 μg of chicken type II collagen (catalog number: 20012, Chondrex) in a 1:1 mixture (total 100 μl) subcutaneously into the base of the tail on day 0[18]. The booster immunization of CII with incomplete Freund's adjuvant (catalog number: 7002, Chondrex) was performed on day 21. Recombinant human G-CSF (Filgrastim, Neupogen, Amgen, Inc., Thousand Oaks, CA) was injected at 10 μg peritoneally once daily from day 20 to day 23. Vehicle (water) or 50 mg/kg of JBI-589 was orally administered twice daily from day 20 to day 56. The severity of arthritis was evaluated using the following clinical scoring system for each limb: 0, normal; 1, swelling in one finger joint; 2, swelling in more than one finger joint or wrist or ankle joint; 3, swelling in the entire paw; and 4, deformity and or ankylosis. The maximum score was 16 per mouse. […] At the end of the study, all mice were euthanized after giving anesthesia using 2% isoflurane (Patterson Veterinary, catalog number: 07–893-2374). […]
H&E stain of joint tissue was performed following the previously described method.
Inflammation was scored on a scale of 0 (no inflammation) to 3 (severe inflamed joint) depending on the number of inflammatory cells in the synovial cavity (exudate) and synovial tissue (infiltrate)[39]. […]
Expressions of target proteins in synovial tissue on the joint surface of wrists and ankles were determined by immunoblotting. Synovial tissue was homogenized in radioimmunoprecipitation assay (RIPA) buffer (catalog number: 89901, Thermo Fisher Scientific) with protease inhibitor cocktails (catalog number: R0278, Sigma, St. Louis, MO) on ice. Following centrifugation at 20,000 g for 20 min at 4 °C, the protein content of the supernatant was determined by the Bradford protein assay (catalog number: 5000006, Bio-Rad Laboratories), and an equal amount of protein per sample was used. Protein lysate was resolved on gradient gels (Bolt 4–12% Bis–Tris Plus gels, catalog number: NW04122BOX, Life Technologies) and electroblotted on polyvinylidene difluoride (PVDF) membranes (catalog number: IB401001, Invitrogen) using the iBlot system (Thermo Fisher Scientific). After blocking with 5% BSA TBS-T buffer (0.05% Tween-20 in 1 × TBS) for 1 h at room temperature, the membranes were incubated with primary antibodies against myeloperoxidase (MPO, 1:500, catalog number: A0398, DAKO, Santa Clara, CA) or citrullinated histone H4 (H4Cit, 1: 1,000, catalog number: 07-596, Millipore, Burlington, MA) at 4 °C overnight, and subsequently with goat anti-rabbit IgG (H + L)- HRP (1:10,000, catalog number: 1706515, Bio-Rad) for 2 h at room temperature. Blots were developed with enhanced chemiluminescence substrate (catalog number: 32106, Thermo Fisher Scientific). Equal loading was confirmed by GAPDH (catalog number: G9545-200UL, 1: 10,000, Sigma). The intensity of the bands on blots was quantified using ImageJ software.

[3] = target: T1, human recombinant PAD2 (Homo sapiens, UniProt Q9Y2J8); experiment: PAD2 selectivity biochemical assay measuring ammonia release; settings: 10 semi-log concentrations, highest concentration tested 30 µM
T1 construct: purchased Cayman Chemicals 10785

[4] = system: collagen induced arthritis; experiment: Collagen induced arthritis model in DBA/1 mice; assay type: in vivo; settings: Dexamethasone dose not given
[5] = 50 mg/kg orally twice daily day 20 to day 56
[6] = JBI-589 50 mg/kg po BID, Etanercept 25 mg/kg IP day 31–45

T1 sequence (Q9Y2J8 whole entry): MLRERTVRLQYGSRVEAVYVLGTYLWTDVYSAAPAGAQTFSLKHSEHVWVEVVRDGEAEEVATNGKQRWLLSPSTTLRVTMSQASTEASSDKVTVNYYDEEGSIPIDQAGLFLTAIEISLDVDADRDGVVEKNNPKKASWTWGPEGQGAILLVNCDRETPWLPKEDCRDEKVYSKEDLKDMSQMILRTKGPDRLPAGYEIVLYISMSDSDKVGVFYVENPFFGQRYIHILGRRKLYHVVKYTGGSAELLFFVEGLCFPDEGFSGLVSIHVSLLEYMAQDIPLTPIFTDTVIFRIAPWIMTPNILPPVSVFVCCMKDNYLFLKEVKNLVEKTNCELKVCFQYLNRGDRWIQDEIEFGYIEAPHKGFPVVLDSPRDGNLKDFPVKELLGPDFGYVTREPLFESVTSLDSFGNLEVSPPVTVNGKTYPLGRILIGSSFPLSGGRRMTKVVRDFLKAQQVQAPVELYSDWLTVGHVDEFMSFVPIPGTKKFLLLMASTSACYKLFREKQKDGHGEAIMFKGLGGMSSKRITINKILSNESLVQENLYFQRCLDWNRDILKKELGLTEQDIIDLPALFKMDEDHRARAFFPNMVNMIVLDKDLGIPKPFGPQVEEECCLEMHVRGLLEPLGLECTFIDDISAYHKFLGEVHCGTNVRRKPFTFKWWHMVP

## Cc1c(-c2cc3ccccc3n2Cc2ccc(F)cc2)nc2cc(C(=O)N3CCC[C@@H](N)C3)ccn12 [JBI-589, (R)-(3-aminopiperidin-1-yl)(2-(1-(4-fluorobenzyl)-1H-indol-2-yl)-3-methylimidazo[1,2-a]pyridin-7-yl)methanone]
[1]; Fig. 1c, human neutrophils, calcium ionophore, x axis μM
  IC50: 0.146 µM
[1]; human neutrophils induced by 25 µM calcium ionophore, ELISA, read-out: EC50, inhibition of histone H3 citrullination
  EC50: 146 nM
[2]; [5]
  effect on arthritis incidence: significant effect
  effect on arthritis severity: significant effect
[2]; ankle joints day 56, present in vehicle-treated mice
  lesions positive for H3Cit and Ly6G and DNA within the joint space and on the bone surface (immunofluorescence): not in JBI-589-treated mice
[2]; ankle joints, vs control mice
  eroded surface of bones (micro-CT): fewer areas of eroded surface
[2]; day 22, vs vehicle
  plasma levels of H3Cit: lower
[2]; day 56, vs vehicle
  serum IL-6: reduced
  serum anti-Collagen Type II (CII) IgG2c antibody level: comparative
  serum anti-Collagen Type II (CII) IgG antibody level: comparative
[2]; vs vehicle
  H4Cit in synovial tissue (western blot): less
  Myeloperoxidase (MPO) in synovial tissue (western blot): less
  inflammation (exudate and infiltrate), H&E staining of ankle joint: alleviated severity of arthritis
  serum anti-H3Cit antibody: less
[3]
  inhibitory activity against PAD2: did not have any inhibitory activity
[4]; JBI-589 50 mg/kg po BID day 0-45, Etanercept 25 mg/kg IP day 31–45
  clinical score: significantly decreased
[4]; [6]
  bone erosion (histopathology): significantly decreased
  joint inflammation (histopathology): significantly decreased
  pannus formation (histopathology): significantly decreased
[4]; day 45, JBI-589 50 mg/kg po BID
  spleen weight: no adverse effect
[4]; end of study, JBI-589 50 mg/kg po BID
  body weight: no adverse effect
